Entries after “also recorded” stand apart in the source; their conditions may differ. Read-outs that look alike come from different tables or passages of the source.
Assays:
C. elegans = C. elegans lifespan assays (liquid and plate); assay type: in vivo, Caenorhabditis elegans; settings: for ILS at 60 µM / ILS at 66 µM: Caenorhabditis elegans; for O = Life span- extending scores in worms: score scale 0 to 2, 4 to 6 independent trials; for M = Lifespan-extending scores in worms: summary score
FOXO3 = assay: qPCR analysis of FOXO3-regulated genes; assay type: cell-based, human; settings: for Induction of at least two of five FOXO3-regulated genes (SOD2, GADD45A, CAT, DDB1, TXNIP): WI-38; for fold induction at 10 µM: Homo sapiens; for K = Sestrin induction: score
Summary of the method: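 WI-38 cells treated with compound at 10 μM for 24 h, followed by Cells-to-Ct RT-qPCR of FOXO3 target genes normalised to B2M, PPIA and GAPDH. FOXO3 or NRF2 dependence tested by prior 10 nM siRNA knockdown (36 h transfection, compound added ~24 h after replating).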

NRF2 = assay: qPCR analysis of NRF2-regulated genes; assay type: cell-based, human; settings: for fold induction at 10 µM: Homo sapiens
Summary of the method: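 WI-38 cells treated with compound at 10 μM for 24 hrs, then processed by Cells-to-Ct for RNA isolation, RT and qPCR of NRF2-regulated genes (HMOX1, NQO1, GCLC, GSTM1). Expression normalized to B2M, PPIA and GAPDH; siRNA knockdown of FOXO3 or NRF2 (10 nM) preceded treatment in some runs.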

WI-38 cells = settings: for Percentage of propidium iodide-positive dead cells (no H2O2 stress treatment), at 10 uM: negative control 0.41% ± 0.23%
Method: WI-38 cells were seeded on 384-well plates for 24 hrs and then incubated with small molecules for 24 hrs. […] Images were collected on an INCell Analyzer 2000 (GE) and analyzed with the Developer software.

human PARP1 = target: T1, human PARP1 (Homo sapiens, UniProt P09874); assay: PARP inhibitor assay (HT Fluorescent Homogeneous PARP Inhibition Assay Kit); assay type: biochemical; settings: for L = PARP inhibition: score
T1 construct: purchased Trevigen
T1 sequence (P09874 whole entry): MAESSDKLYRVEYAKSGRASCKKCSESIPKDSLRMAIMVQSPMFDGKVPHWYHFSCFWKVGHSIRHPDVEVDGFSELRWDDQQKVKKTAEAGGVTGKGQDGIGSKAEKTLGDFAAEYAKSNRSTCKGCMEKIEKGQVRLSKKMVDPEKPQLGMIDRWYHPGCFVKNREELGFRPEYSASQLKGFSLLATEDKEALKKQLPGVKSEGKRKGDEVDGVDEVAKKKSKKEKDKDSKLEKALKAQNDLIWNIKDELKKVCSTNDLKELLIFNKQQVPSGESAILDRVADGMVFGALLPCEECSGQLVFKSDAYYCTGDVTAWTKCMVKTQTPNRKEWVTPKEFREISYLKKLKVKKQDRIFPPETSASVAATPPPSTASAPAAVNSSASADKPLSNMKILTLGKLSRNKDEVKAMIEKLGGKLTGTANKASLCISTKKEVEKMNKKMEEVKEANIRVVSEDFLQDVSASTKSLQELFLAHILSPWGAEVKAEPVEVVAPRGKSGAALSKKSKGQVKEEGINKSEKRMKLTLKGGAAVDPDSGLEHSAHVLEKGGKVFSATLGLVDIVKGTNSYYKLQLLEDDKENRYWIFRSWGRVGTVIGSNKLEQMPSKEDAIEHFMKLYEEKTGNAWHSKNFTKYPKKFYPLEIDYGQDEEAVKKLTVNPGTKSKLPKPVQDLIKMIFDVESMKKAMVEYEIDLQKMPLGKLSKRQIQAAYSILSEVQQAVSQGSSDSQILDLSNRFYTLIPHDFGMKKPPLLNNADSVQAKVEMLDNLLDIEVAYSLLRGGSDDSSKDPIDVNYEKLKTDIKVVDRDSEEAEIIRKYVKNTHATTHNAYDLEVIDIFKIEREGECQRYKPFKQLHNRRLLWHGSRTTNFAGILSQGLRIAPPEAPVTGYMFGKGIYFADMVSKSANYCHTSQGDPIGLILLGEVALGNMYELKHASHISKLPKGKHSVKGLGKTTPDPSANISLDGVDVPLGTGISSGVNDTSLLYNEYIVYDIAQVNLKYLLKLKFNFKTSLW
Summary of the method: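 Human PARP1 with NAD and activated DNA, compounds at 10 μM final, 30 min at room temperature in dark. Resazurin/diaphorase cycling mix then added for 1 hr in dark before stop buffer; fluorescent homogeneous kit read-out.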

[1] = in liquid, wild type, with FuDR, 1.0 × 10^9 bacteria/ml, read-out: relative change of mean lifespan vs control, Trial 1
[2] = in liquid, wild type, with FuDR, 2.5 × 10^9 bacteria/ml, read-out: relative change of mean lifespan vs control, Trial 2
[3] = on plate, CF512 temperature-sensitive sterile animals, without FuDR, 2.0 × 10^10 bacteria/ml, read-out: relative change of mean lifespan vs control, Trial 3
[4] = Assay 2(z), 1.0 × 10^9 bacteria/ml, wild type + FuDR (2012 July), read-out: Lifespan assay in liquid
[5] = Assay 3(aa), 2.5 × 10^9 bacteria/ml, wild type + FuDR, read-out: Lifespan assay in liquid
[6] = Assay 4(ab), 2.0 × 10^10 bacteria/ml, CF512 worms, no FuDR, read-out: Lifespan assay on plates
[7] = 24 h, Assay 10(m), at 10 uM, qPCR, read-out: Induction of FOXO3-regulated genes: TXNIP normalized fold-change
[8] = 10 μM, 24 hrs, WI-38 cells, qPCR, normalized to B2M, n = 4, read-out: TXNIP expression, normalized fold change (FOXO3-regulated gene)
[9] = WI-38 cells, 10 μM, 24 hrs, n=4, qPCR normalized by B2M, read-out: DDB1 Normalized fold change
[10] = WI-38 cells, 10 μM, 24 hrs, n=4, qPCR normalized by B2M, read-out: GADD45A Normalized fold change
[11] = WI-38 cells, 10 μM, 24 hrs, n=4, qPCR normalized by B2M, read-out: SESN1 Normalized fold change
[12] = fold change, qPCR, WI-38 cells, 10 μM, 24 hrs, read-out: Summary of effects on FOXO3-regulated genes: TXNIP
[13] = qPCR, WI-38 cells, 10 μM, n=4, 24 hrs, normalized by B2M, read-out: CAT Normalized fold change
[14] = qPCR, WI-38 cells, 10 μM, n=4, 24 hrs, normalized by B2M, read-out: SOD2 Normalized fold change
[15] = qPCR, WI-38 cells, 10 μM, n=4, 24 hrs, normalized by B2M, read-out: TXNIP Normalized fold change
[16] = WI-38 cells, 10 μM, 24 hrs, n=4, qPCR normalized by B2M, read-out: GCLC Normalized fold change
[17] = WI-38 cells, 10 μM, 24 hrs, n=4, qPCR normalized by B2M, read-out: GSTM1 Normalized fold change
[18] = WI-38 cells, 10 μM, 24 hrs, n=4, qPCR normalized by B2M, read-out: HMOX1 Normalized fold change
[19] = WI-38 cells, 10 μM, 24 hrs, n=4, qPCR normalized by B2M, read-out: NQO1 Normalized fold change

Oc1ncnc2sc3c(c12)CCC3 [O14]
ILS at 60 µM (C. elegans; [1]): 13.7%
ILS at 60 µM (C. elegans; [2]): 5.8%
ILS at 60 µM (C. elegans; [3]): 11.3%
ILS at 66 µM (C. elegans; [4]): 13.7%
ILS at 66 µM (C. elegans; [5]): 5.8%
ILS at 66 µM (C. elegans; [6]): 11.3%
Lifespan extension of C. elegans (C. elegans; across independent trials): ≥ 10%
Extension of C. elegans' lifespan (qualitative) (C. elegans; in at least 3 to 4 trials, group range ~10% to ~50%): could extend animal's lifespan
Trials with lifespan extension (C. elegans; positive of total trials): 3 of 3
O = Life span- extending scores in worms (C. elegans): 2 (2 for observed in more than 2 trials)
M = Lifespan-extending scores in worms (C. elegans): 2 (2 for observed in more than 2 trials)
Induction of at least two of five FOXO3-regulated genes (SOD2, GADD45A, CAT, DDB1, TXNIP) (FOXO3; 10 μM, 24 hrs): significant induction
E = Potential FOXO3 Activation (FOXO3; 2-point score): 0
fold induction at 10 µM (FOXO3; 24 h, Assay 10(m), at 10 uM, qPCR, read-out: Induction of FOXO3-regulated genes: SOD2 normalized fold-change): 1.06
fold induction at 10 µM (FOXO3; [7]): 1.27
fold induction at 10 µM (FOXO3; [8]): 1.39
fold induction at 10 µM (FOXO3; [9]): 1.08
fold induction at 10 µM (FOXO3; [10]): 1.2
fold induction at 10 µM (FOXO3; [11]): 1.14
fold induction at 10 µM (FOXO3; [12]): 1.39
fold induction at 10 µM (FOXO3; [13]): 1.03
fold induction at 10 µM (FOXO3; [14]): 1.27
fold induction at 10 µM (FOXO3; [15]): 1.39
K = Sestrin induction (FOXO3): 0
E = Potential FOXO3 Activation (FOXO3; summary score): 0
F = Potential NRF2 Activation (NRF2; 2-point score): 0
fold induction at 10 µM (NRF2; [16]): 1.07
fold induction at 10 µM (NRF2; [17]): 1.53
fold induction at 10 µM (NRF2; [18]): 1.11
fold induction at 10 µM (NRF2; [19]): 0.871
F = Potential NRF2 Activation (NRF2; summary score): 0
Percentage of propidium iodide-positive dead cells (no H2O2 stress treatment), at 10 uM (WI-38 cells): 0.41% ± 0.22%,
Inhibition of PARP1 (human PARP1; 10 μM, in vitro): inhibitors of PARP1; also recorded: identified PARP inhibitor
L = PARP inhibition (human PARP1): 1

CCCN1C/C(=C\c2ccc(F)cc2)C(=O)/C(=C/c2ccc(F)cc2)C1 [O15]
ILS at 60 µM (C. elegans; [1]): 38%
ILS at 60 µM (C. elegans; [2]): 6.6%
ILS at 60 µM (C. elegans; [3]): 14.6%
ILS at 66 µM (C. elegans; [4]): 38%
ILS at 66 µM (C. elegans; [5]): 6.6%
ILS at 66 µM (C. elegans; [6]): 14.6%
O = Life span- extending scores in worms (C. elegans): 1 (1 for lifespan extension observed in 2 trials)
M = Lifespan-extending scores in worms (C. elegans): 1 (1 for lifespan extension observed in 2 trials)
Induction of at least two of five FOXO3-regulated genes (SOD2, GADD45A, CAT, DDB1, TXNIP) (FOXO3; 10 μM, 24 hrs): significant induction; also recorded: significant, induction
E = Potential FOXO3 Activation (FOXO3; 2-point score): 0
fold induction at 10 µM (FOXO3; 24 h, Assay 10(m), at 10 uM, qPCR, read-out: Induction of FOXO3-regulated genes: CAT normalized fold-change): 1.28
fold induction at 10 µM (FOXO3; 24 h, Assay 10(m), at 10 uM, qPCR, read-out: Induction of FOXO3-regulated genes: GADD45A normalized fold-change): 2.72
fold induction at 10 µM (FOXO3; 24 h, Assay 10(m), at 10 uM, qPCR, read-out: Induction of FOXO3-regulated genes: SESN1 normalized fold-change): 0.8
fold induction at 10 µM (FOXO3; [7]): 0.22
fold induction at 10 µM (FOXO3; 10 μM, 24 hrs, WI-38 cells, qPCR, normalized to B2M, n = 4, read-out: CAT expression, normalized fold change (FOXO3-regulated gene)): 1.28
fold induction at 10 µM (FOXO3; 10 μM, 24 hrs, WI-38 cells, qPCR, normalized to B2M, n = 4, read-out: GADD45A expression, normalized fold change (FOXO3-regulated gene)): 2.72
fold induction at 10 µM (FOXO3; 10 μM, 24 hrs, WI-38 cells, qPCR, normalized to B2M, n = 4, read-out: SESN1 expression, normalized fold change (FOXO3-regulated gene)): 0.8
fold induction at 10 µM (FOXO3; [8]): 0.22
fold induction at 10 µM (FOXO3; [9]): 1.17
fold induction at 10 µM (FOXO3; [10]): 2.71
fold induction at 10 µM (FOXO3; [11]): 0.679
fold induction at 10 µM (FOXO3; fold change, qPCR, WI-38 cells, 10 μM, 24 hrs, read-out: Summary of effects on FOXO3-regulated genes: CAT): 1.28
fold induction at 10 µM (FOXO3; fold change, qPCR, WI-38 cells, 10 μM, 24 hrs, read-out: Summary of effects on FOXO3-regulated genes: GADD45A): 2.72
fold induction at 10 µM (FOXO3; fold change, qPCR, WI-38 cells, 10 μM, 24 hrs, read-out: Summary of effects on FOXO3-regulated genes: SESN1): 0.8
fold induction at 10 µM (FOXO3; [12]): 0.22
fold induction at 10 µM (FOXO3; [13]): 1.28
fold induction at 10 µM (FOXO3; [14]): 1.05
fold induction at 10 µM (FOXO3; [15]): 0.219
K = Sestrin induction (FOXO3): 0
E = Potential FOXO3 Activation (FOXO3; summary score): 0
F = Potential NRF2 Activation (NRF2; 2-point score): 2
Potential NRF2 Activation (>=2 target genes induced, by >=1.5-fold) (NRF2; Assay 13(p)): YES
fold induction at 10 µM (NRF2; 24 h, Assay 12(o), at 10 uM, qPCR, read-out: Induction of NRF2-regulated genes: HMOX1 normalized fold-change): 48.7
fold induction at 10 µM (NRF2; 24 h, Assay 12(o), at 10 uM, qPCR, read-out: Induction of NRF2-regulated genes: NQO1 normalized fold-change): 1.6
fold induction at 10 µM (NRF2; rounded fold change, WI-38 cells, 10 μM, 24 hrs (RP11 for Gr-1D, RP29 for Gr-4D), read-out: Summary of effects on NRF2-regulated genes: HMOX1): 48.7
fold induction at 10 µM (NRF2; rounded fold change, WI-38 cells, 10 μM, 24 hrs (RP29 for Gr-4D), read-out: Summary of effects on NRF2-regulated genes: NQO1): 1.6
fold induction at 10 µM (NRF2; 10 μM, 24 hrs, WI-38, read-out: Expression of at least two NRF2 target genes): > 1.5
fold induction at 10 µM (NRF2; 10 μM, 24 hrs, WI-38 cells, qPCR, normalized to B2M, n = 4, read-out: HMOX1 expression, normalized fold change (NRF2-regulated gene)): 48.7
fold induction at 10 µM (NRF2; 10 μM, 24 hrs, WI-38 cells, qPCR, normalized to B2M, n = 4, read-out: NQO1 expression, normalized fold change (NRF2-regulated gene)): 1.6
fold induction at 10 µM (NRF2; [16]): 1.23
fold induction at 10 µM (NRF2; [17]): 0.995
fold induction at 10 µM (NRF2; [18]): 48.7
fold induction at 10 µM (NRF2; [19]): 1.6
F = Potential NRF2 Activation (NRF2; summary score): 2
PI cell-death imaging without H2O2 (indicating potential toxicity) (WI-38 cells; Assay 8(k), without H2O2, at 10 uM): YES
PI-positive dead cells under normal conditions (WI-38 cells; WI-38, no H2O2, control 0.4±0.2%): 3.8%±0.7%
Percentage of propidium iodide-positive dead cells (no H2O2 stress treatment), at 10 uM (WI-38 cells): 3.76% ± 0.68%,
L = PARP inhibition (human PARP1): 0

— patent US11413278B2, “Compounds and methods for promoting stress resistance” (priority 2015, dated 2022)
